outcome, EC50 and IC50 data for 73 compounds are collected here from PubChem BioAssay AID179 (DTP/NCI, 2004).

The test system of the assay is CEM cells HIV-1 protection, formazan growth assay. As to the kind of experiment: NCI AIDS Antiviral Assay. To be noted: for IC50: measured here: growth of uninfected CEM cells. An outline of the steps: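 Steps: treat uninfected and HIV-1-infected human CEM cells at five drug levels; quantify growth by soluble formazan; retest any compound reaching 50% protection; classify actives from the retest.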

Values joined by “and” are separate entries in the source; they are usually repeats but may differ in a detail not shown here. Equal values may be shown once. Active and inactive are the calls of the source.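 The calls were made as follows: active = compounds giving half or more protection of infected cells from virus-caused growth loss, again on retest; inactive = the rest.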

For the compound `NCCCNCCSSCCCCS(=O)O`, the outcome was inactive.
As for `CN1C(=O)C[N+]([O-])=C(c2ccccc2)c2cc(Cl)ccc21`, the EC50 is more than 120 µM and the IC50 was more than 120 µM.
With `O=C(NC12CC3CC(CC(C3)C1)C2)C(=O)c1c[nH]c2ccc(Cl)cc12`, the outcome was inactive.
Regarding `Cc1c(O)c2ccccc2[nH]c1=O`, the EC50 was more than 200 µM and the half-inhibitory concentration (IC50) was more than 200 µM.
Consider `O=C(OCc1ccccc1)/C(c1ccccc1)=[N+]1/C(=S)Nc2ccc([N+](=O)[O-])cc21`, for which the EC50 is more than 200 µM and the IC50 worked out at 105 µM.
For `CCOC(=O)CN(Cn1cncn1)Cn1cncn1`, the EC50 is more than 200 µM and the IC50 was 28.8 µM.
For `COc1cc(/C=C2\C(=O)N(c3ccc(Cl)cc3)C(c3ccccc3)S2(=O)=O)cc(OC)c1OC` (stereo not drawn), the result was inactive.
As for `COc1cc(OC)c2c(=O)c(OC)c(-c3ccc4c(c3)OCO4)oc2c1OC`, the EC50 is more than 200 µM and the IC50 is more than 200 µM.
In the case of `[N-]=[N+]=CC(=O)OCCCCl`, the EC50 is more than 200 µM and the IC50 is more than 200 µM.
As to `N=C(N)SCCCON`, the EC50 was more than 200 µM and the IC50 was more than 200 µM.
With `Cc1nn(C(=O)c2ccc(Cl)cc2)c2c1C(c1ccccc1O)SC(N)=N2` (stereo not drawn), the EC50 is more than 200 µM and the IC50 was 107 µM.
Turning to `N#CC(NCCc1ccccc1)c1ccccc1` (stereo not drawn), the result was inactive.
Consider `NC1C(O)C(O)C(O)C(O)C1O` (stereo not drawn), for which the EC50 was more than 7240 µM and the 50% inhibitory concentration (IC50) was more than 7240 µM.
Regarding `CC1OC23CCCCC2C(C#N)(C#N)C1(C#N)C(=N)O3` (stereo not drawn), the EC50 was more than 200 µM and the IC50 stood at 4.27 µM.
Consider `COC(CCC(C)C1OC23CC(OC(=O)CC(C(C)O)OC(=O)CC(O)(O2)C(C)CC3(C)C)C1C)c1cccc(O)c1` (stereo not drawn), for which the outcome was active.
Regarding `Cc1ccc2oc(=O)c3c(O)c4cccc(OC5OC(C)C6O[C@@H](c7ccccc7)OC6C5OC5OC(C)C(O)C(O)C5O)c4c4oc(=O)c1c2c34` (stereo partly drawn), the EC50 is more than 7.24 µM and the IC50 was determined as 0.0324 µM.
In the same order, the values of `COc1cc(-c2cc(=O)c3c(O)c(OC)c(OC)c(OC)c3o2)ccc1O` are more than 132 µM and 9.33 µM.
`CCS(=O)(=O)c1c2cc(OC)ccc2nc2ccc(OC)cc12`: the EC50 was more than 200 µM and the IC50 is more than 200 µM.
Consider `CNC(=O)CN(CC(=O)NC)C(=O)NC`, for which the EC50 is more than 120 µM and the IC50 was more than 120 µM.
With `CCN(CC)c1ncnc2c1ncn2CCNC(CO)(CO)CO`, the EC50 is more than 200 µM and the IC50 is more than 200 µM.
Consider `CC(=O)Nc1nc(C)c(CCC#N)c(SC(=N)N)n1`, for which the EC50 is more than 200 µM and the IC50 was more than 200 µM.
With `O=C(NNCc1ccccc1O)c1ccccc1O`, the EC50 was more than 200 µM and the IC50 was determined as 2.88 µM.
Consider `S=C1NCCO1`, for which the EC50 was more than 200 µM and the IC50 came out at 105 µM.
In the same order, the values of `CC1C2C=C(O)C(=O)C(C2=O)C1c1ccccc1` (stereo not drawn) are more than 741 µM and 141 µM.
In the case of `COc1ccc2c(c1)OC[C@H]1c3cc(O)c(O)cc3O[C@@H]21`, the result was inactive.
With `Cc1ncc([N+](=O)[O-])n1CCOC(N)=O`, the EC50 is more than 200 µM and the IC50 is more than 200 µM.
Consider `CCOC(=O)C1=CCOc2cc(N(C)C)ccc21`, for which the EC50 was more than 200 µM and the IC50 was 105 µM.
In the same order, the values of `CCOC(=O)N/N=C(/OCC)c1ccccc1` are more than 200 µM and more than 200 µM.
Turning to `c1ccc(C2OCC(OC3CCCCO3)CO2)cc1` (stereo not drawn), the EC50 is more than 200 µM and the half-inhibitory concentration (IC50) was more than 200 µM.
Consider `COc1ccc(NC(C)=O)cc1N1C(=O)/C(=C\c2cc(OC)c(OC)c(OC)c2)SC1c1ccccc1` (stereo not drawn), for which the outcome was inactive.
On to `Cn1c(=O)n2n(c1=O)C1C3C4C3C3C5(COCC135)C42` (stereo not drawn), for which the EC50 is more than 200 µM and the IC50 is more than 200 µM.
As for `COc1cc(C2c3cc4c(cc3OC(N3CCCC3)C2C)OCO4)cc(OC)c1O` (stereo not drawn), the EC50 is more than 200 µM and the IC50 came to 6.03 µM.
In the same order, the values of `CN1C(=O)C(C)(C)C(=O)c2ccccc21` are more than 200 µM and more than 200 µM.
As to `COc1ccc(/C=C/CN(C)CCc2ccccc2)cc1OC`, the result was inactive.
With `CCCC(O)c1ccc2[nH]c3c(C)cc([N+](=O)[O-])c(C)c3c2c1` (stereo not drawn), the EC50 was more than 4.68 µM and the IC50 was more than 4.68 µM.
With `CCOC(=O)CSC(=O)NCCCl`, the EC50 is more than 1100 µM and the IC50 was 537 µM.
`COC(=O)CCC(=O)Nc1ccc(Cl)cc1C`: the result was inactive.
With `CCOC(=O)C(C)(C)Oc1ccc(/C=C/C(=O)c2ccc(Cl)cc2)cc1`, the EC50 was more than 10 µM and the IC50 is more than 10 µM.
For the compound `Cc1cc2c(c(S(=O)(=O)c3ccc(Cl)cc3[N+](=O)[O-])c1)NCCC2`, the EC50 was more than 75.9 µM and the IC50 turned out to be 27.5 µM.
`NC(=O)CNC(=O)c1ccccc1SC(=O)NCCCCl` displayed an EC50 of 3.72 µM and an IC50 of 64.6 µM.
In the same order, the values of `CCCCN1C(=O)N(c2ccc(OCC)cc2)C2N(CCCC)C1C(C)(C)C2(C)C` (stereo not drawn) are more than 21.9 µM and more than 21.9 µM.
On to `O=C(Nc1ccccn1)/C(=C\C(=O)c1ccc(Cl)cc1)Nc1ccccc1`, for which the EC50 is more than 200 µM and the IC50 stood at 174 µM.
Consider `N#CC(C#N)=C1NN=C(Cl)c2ccccc21`, for which the outcome was inactive.
As to `CCCc1c[nH]c(-c2ccc(-c3cc(CCC)c(C=O)[nH]3)s2)c1`, the EC50 is more than 11.5 µM and the IC50 was more than 11.5 µM.
On to `NC1=Nc2ccccc2Sc2nc3ccccc3n21`, for which the EC50 is more than 200 µM and the IC50 is 8.71 µM.
In the same order, the values of `Cc1cc(=O)oc2c(CNC(C(=O)O)C(C)O)c(O)ccc12` (stereo not drawn) are more than 200 µM and more than 200 µM.
For `CC(C(=O)ON1C(=O)CCC1=O)c1ccc(C(=O)c2ccccc2)s1` (stereo not drawn), the EC50 is more than 200 µM and the IC50 was more than 200 µM.
In the case of `Cc1c(Cl)ccc2c1NC(=O)C2(O)C(C(=O)c1ccccc1)c1ccccc1` (stereo not drawn), the EC50 was more than 66.1 µM and the IC50 was more than 66.1 µM.
The compound `Cc1cc(N=Nc2ccc(C(=O)O)cc2)c(N)c(N=Nc2ccc(N=Nc3ccc(O)c(C(=O)O)c3)cc2)c1N` had a half-maximal effective concentration (EC50) of 38 µM and a half-maximal inhibitory concentration (IC50) of 195 µM.
In the same order, the values of `O=[N+]([O-])c1ccc(S(=O)(=O)n2c3ccc(Br)cc3c3nc4ccccc4nc32)cc1` are more than 100 µM and more than 100 µM.
As to `O=C1CCCc2[nH]c(=O)ccc21`, the outcome was inactive.
For the compound `CC1(C)OC(C(C)(C)O)C(C(C)(C)O)O1` (stereo not drawn), the EC50 was more than 200 µM and the half-inhibitory concentration (IC50) is more than 200 µM.
`O/N=C1/C(=C/c2ccc(Br)cc2)CCCC1C(NO)c1ccc(Br)cc1` (stereo not drawn): the EC50 is more than 20.9 µM and the IC50 is more than 20.9 µM.
As to `COc1cc2c(cc1OC)C(CN)C2` (stereo not drawn), the EC50 is more than 1070 µM; the IC50 was 30.9 µM and 20 µM.
For `O=C1/C(=C/c2ccccc2)CCCC1CN1CCCCC1` (stereo not drawn), the EC50 is more than 200 µM and the IC50 was found to be 0.676 µM.
In the same order, the values of `COc1ccc(C(C)c2cc3c(cc2OC)OCO3)cc1` (stereo not drawn) are more than 66.1 µM and 0.427 µM.
Regarding `CCn1c(O)c(C=Nc2ccccc2)s/c1=N/Nc1nc(C)c(C(C)=O)s1`, the EC50 is more than 200 µM and the concentration for half-maximal inhibition (IC50) was more than 200 µM.
For the compound `Cc1cc(OC(F)(F)c2nc3ccccc3o2)cc(C)c1C`, the EC50 was 25.1 µM and the IC50 came out at 26.9 µM.
Regarding `CC(C)CCCC(C)[C@H]1CC[C@H]2[C@@H]3CC[C@H]4C[C@@H](CCC=C(c5cc(Cl)c(OC(=O)C(C)(C)C)c(C(=O)O)c5)c5cc(Cl)c(OC(=O)C(C)(C)C)c(C(=O)O)c5)CC[C@]4(C)[C@H]3CC[C@]12C` (stereo partly drawn), the EC50 is 75.9 µM and the half-maximal inhibitory concentration (IC50) is more than 100 µM.
On to `Cc1cc2c(C(C)C)c(O)c(O)c(C=NC(C)c3ccccc3)c2c(O)c1-c1c(C)cc2c(C(C)C)c(O)c(O)c(C=NC(C)c3ccccc3)c2c1O` (stereo not drawn), for which the EC50 is more than 7.24 µM, the result was inactive and the IC50 is more than 7.24 µM.
As to `CC(C)(CN1CCCCC1)C(=O)CC(SCCS(=O)(=O)O)c1ccccc1` (stereo not drawn), the EC50 was more than 200 µM and the IC50 is 3.31 µM.
For the compound `COc1cc(C2c3cc4c(cc3OC3(OC)COC(=O)C23)OCO4)cc(OC)c1OC(C)=O` (stereo not drawn), the EC50 is more than 100 µM and the IC50 worked out at 0.562 µM.
Turning to `CC1=NN(C(=O)c2ccccc2)C(C)C1N=Nc1ccccc1C(=O)O` (stereo not drawn), the outcome was inactive.
For the compound `Cc1cn2c(n1)Nc1sc3c(c1C2)CCCC3`, the EC50 was more than 200 µM and the half-inhibitory concentration (IC50) was 30.2 µM.
In the same order, the values of `COc1ccc(OC)c(NC(=S)N/N=C/c2cccc3ccccc23)c1` are more than 200 µM and 1.05 µM.
`CSc1cccc(-n2c3nc(=O)n(C)c(=O)c-3nc3ccccc32)c1`: the result was inactive.
Turning to `COc1ccc2c3c1OC1C4(CCC5C(C2)N(CC2CC2)CCC351)OCCO4` (stereo not drawn), the EC50 was more than 129 µM and the concentration for half-maximal inhibition (IC50) was more than 129 µM.
Turning to `COc1ccc2c(c1)[C@@H](NC(C)=O)CCc1cc(OC)c(OC)c(OC)c1-2`, the EC50 is more than 0.0708 µM and the IC50 was determined as 0.011 µM.
With `Cn1c2c(c3ccccc31)CCN(CCCN1CCN(c3cccc(Cl)c3)CC1)C2=O`, the EC50 was more than 16.6 µM and the IC50 was more than 16.6 µM.
Consider `COC1=CC(=O)c2ccccc2C1(CCC=C(C)C)C1=NC(C)(C)CO1` (stereo not drawn), for which the outcome was inactive.
For the compound `CC1=NN(c2ccccc2)C(=O)/C1=C1/C(=O)N(c2ccccc2)N=C1C`, the EC50 was more than 200 µM and the IC50 is more than 200 µM.
As for `CC([C@H]1CCC2C3CCC4CC5(CC[C@]4(C)C3CC[C@@]21C)c1ccccc1C(=O)N5C)N(C)C` (stereo partly drawn), the EC50 was more than 8.13 µM and the IC50 is more than 8.13 µM.
Consider `COc1cc(-c2c(C)c(C)nc(OC)c2C#N)cc(OC)c1OC`, for which the EC50 was 22.9 µM and the IC50 is more than 100 µM.
